Data taken from patent US20100298144A1, “HERBICIDAL COMBINATION” (BAYER CROPSCIENCE AG, priority 2008, published 2010).

System: Polygonum convolvulus
Assay: Post-emergence action against weeds, greenhouse pot test, visual scoring
Type: in vivo
Settings: 11 days after application, 0%=no control, 100%=complete control
Method: Seeds or rhizome pieces of monocotyledonous and dicotyledonous weeds were placed in sandy loam in plastic pots, covered with soil and cultivated in a greenhouse under good growth conditions. Three weeks after sowing, the test plants were treated at the 2-4 leaf stage. The compounds according to the invention, formulated as wettable powders or as emulsion concentrates, were sprayed onto the green parts of the plants at various dosages using a water application rate of from 100 to 800 I/ha (converted). After the test plants had been left to stand in the greenhouse for 10 to 28 days under optimum growth conditions, the effect of the preparations was scored visually in comparison to untreated controls.
0%=no control 100%=complete control

sodium salt of 2-iodo-N-[(4-methoxy-6-methyl-1,3,5-triazin-2-yl)carbamoyl]benzenesulfonamide [Compound A-2]
Polygonum convolvulus Control in % (Table 1, 2.5 g of ai/ha): 10%
Polygonum convolvulus Control in % (Table 2, 2.5 g of ai/ha): 20%

glyphosate-ammonium [Compound B1-15]
Polygonum convolvulus Control in % (Table 2, 360 g of ai/ha): 55%

CP(=O)(O)CCC(N)C(=O)O (stereo not shown) [Compound B1-8, glufosinate-ammonium]
Polygonum convolvulus Control in % (Table 1, 150 g of ai/ha): 20%
